Key:
mu opioid receptor (MOR) = target: T1, mu opioid receptor (MOR) (Homo sapiens, UniProt P35372); assay: OPRMu1 Discover X β-arrestin Assay, antagonist mode (U2OS cells, DAMGO EC80 challenge); format: cell-based
T1 construct: host or cells: U2OS (Discover X OPRMu1-U2OS, PathHunter)
Source text: OPRMu1 Discover X—β-arrestin Assay—Antagonist Mode. […] This assay evaluates the OPRMu1 activation in membrane recruitment of β-arrestin. In addition, the assay evaluates GPCR-β-arrestin proximity using low affinity fragment complementation of beta-galactosidase (beta-gal). The assay employs U20S cells, which express OPRMu1 fused to the complementary beta-gal fragment (enzyme acceptor). As designed, compounds that act as antagonists will prevent receptor activation resulting in reduced well luminescence. Compounds were tested in quadruplicate using a 10-point, 1:3 dilution series starting at a nominal concentration of 10 micromolar.
The Discover X OPRMu1-U20S cell line was cultured in 150 mm dishes at 37° C., 5% CO2 and 95% relative humidity (RH).
On Day 1 of the assay, 5000 cells in 20 μL of assay buffer (Discover X's Cell Plating Reagent 5) were seeded into each well of a 384 Corning 3570 standard white plate, and incubated 16-24 hours at 37° C., 5% CO2 and 95% RH.
On Day 2, 100 nL of test compound in DMSO were added to the appropriate wells and the plates were then incubated for 30 min at 37° C. 5% CO2 and 95% RH. Next, 2.2 μL of DAMGO OPRMu1 agonist (commercially available) or DMSO in assay media. (The EC80 Challenge consists of 1.8 μL of 3.7 μM DAMGO, 0.4 μL of Assay Buffer, with a final assay concentration of 303 nM). After incubation for 3 hours at 37° C. 5% CO2, and 95% RH, 10 μL of Path Hunter Detection Mix was added to each well, and the plate was then incubated at room temperature in the dark for 1 hour. Well luminescence was measured on Perkin Elmer's Envision.
(§1) The Percent Inhibition was calculated from the median ratio as follows:
• DMEM Medium, (Invitrogen 11965) • F12 Medium, (Invitrogen 11765) • Heat Inactivated Fetal Bovine Serum, (Invitrogen 10082147) • Non Essential Amino Acids 100× (Invitrogen 11140-050) • HEPES (pH 7.3) 1M, (Invitrogen 15630-080) • Sodium Pyruvate 100× (Invitrogen 11360-070) • Penicillin Streptomycin, (Invitrogen 15640) • Trypsin 0.25% EDTA (Invitrogen 25200056) • DPBS without Calcium/Magnesium (Invitrogen 14190-136) • DMSO Dry (Sigma D2650) • DAMGO OPRMu1 Agonist MW513.19 (Sigma E7384-5MG) • B-Funaltrexamine Hydrochloride OPRM1 Antagonist MW (SIGMA 0003-2MG) • PathHunter Cell Plating 5 Reagent (Discover X 93-0563R5A) • Corning 3750 Standard 384 well white plate with lid.
PathHunter Detection Mix (DiscoverX 93-0001): 1 part Galacton Star/5 parts Emerald II/19 parts PH Cell Assay Buffer.

[1] = target: T2, kappa opioid receptor (KOR) (Homo sapiens, UniProt P41145); assay: OPRKappa 1 Tango B-Arrestin Assay, antagonist mode (Tango OPRK1-bla U2OS cells, U50488 EC80 challenge); format: cell-based; conditions: for Selectivity (MOR/KOR): Kappa selectivity, MOR IC50 / KOR IC50; for IC50: antagonist mode, Tango OPRK1-bla U2OS cells, 6 nM U50488 challenge
T2 construct: host or cells: U2OS (Tango OPRK1-bla U2OS)
Source text: OPRKappa 1 Tango B-Arrestin Assay Protocol-Antagonist Mode. […] The assay uses Tango OPRK1-bla U2OS cells which express OPRK1 linked to a GAL4-VP16 transcription factor via a TEV protease site. The cells also express a β-arrestin/TEV protease fusion protein and a β-lactamase (BLA) reporter gene under the control of a UAS response element. Stimulation of the OPRK1 receptor by agonist causes migration of the β-arrestin fusion protein to the GPCR, and through proteolysis liberates GAL4-VP16 from the receptor. The liberated VP16-GAL4 migrates to the nucleus, where it induces transcription of the BLA gene. BLA expression is monitored by measuring fluorescence resonance energy transfer (FRET) of a cleavable, fluorogenic, cell-permeable BLA substrate. As designed, test compounds that are OPRK1 antagonists inhibit agonist activation and migration of the fusion protein, thus preventing proteolysis of GAL4-VP16 and BLA transcription, leading to no increase in well FRET. Compounds were tested in quadruplicate using a 10-point, 1:3 dilution series starting at a nominal concentration of 10 micromolar.
The Tango OPRK1-U20S Dividing cell line was routinely cultured in 150 mm dishes at 37C, 5% CO2 and 95% relative humidity (RH).
On Day 1 of the assay, 16,000 cells in 10 μL of assay media (DMEM-Glutamax—with Sodium Pyruvate, 10% fetal bovine serum stripped with charcoal-dextran (CDS), 25 mM HEPES, 0.1 mM non-essential amino acids, antibiotic mix (penicillin streptomycin)) were seeded into each well of a 384 Greiner 788092 black low profile, clear bottom, low volume plate, and incubated 16-24 hours at 37° C., 5% CO2 and 95% (RH).
On Day 2, 50 nL of test compound in DMSO was added to the appropriate wells and plates were incubated for 30 min at 37° C. 5% CO2 and 95% (RH). Next was added 0.65 μL of commercially available U50488 OPRK1 agonist or DMSO in assay media: this EC80 Challenge consists of 0.6 μL of 111 nM U50488 to yield a final assay concentration of 6 nM). After incubation for 4 hours at 37° C., 5% CO2 and 95% (RH), 2.5 μL of LiveBLazer™FRET B/G (CCF4-AM) Mix (Soln.'s A,B,C,&D) was added to each well and incubated at room temperature in the dark for 2 hours. Well fluorescence was measured on Perkin Elmer's Envision using an Excitation filter 409 nm, Emission filters at 460 nm and […], bottom read.
as §1
• Tango™OPRK1-bla U20S Cells (Invitrogen K1576) • McCoy's 5A Medium, (Invitrogen 16600-082) • Dialyzed Fetal Bovine Serum, (Invitrogen 26400-036) • Non Essential Amino Acids 100× (Invitrogen part 11140-050) • HEPES (pH 7.3) 1M, (Invitrogen 15630-080) • Sodium Pyruvate 100× (Invitrogen 11360-070) • Penicillin Streptomycin, (Invitrogen 15640) • Trypsin 0.25% EDTA (Invitrogen 25200056) • DPBS without Calcium/Magnesium (Invitrogen 14190-136) • DMEM, High Glucose, GlutaMAX (Invitrogen 10569-010) • Fetal Bovine Serum, Charcoal Stripped (Invitrogen 12676-011) • DMSO Dry (Sigma D2650) • U50488 OPRK1 Agonist MW410.29 (Tocris 67198-19-0) • GNTI dihydrochloride OPRK1 Antagonist MW571.5 (Tocris 1282) • Nor-Binaltorphimine dihydrochloridc MW770.75 (Tocris 0347)
LiveBLAzere™-FRET/BG Loading Mix: (Invitrogen K1030 (5 mg)), composed of Solutions A, B, C, and D: • Solution A (6 μL): LiveBLAzer™-FRET/BG Substrate (CCF4-AM) • Solution B (60 μL) • Solution C (904 μL) • Solution C (must add 250 μl of 1N NaOH to 45 mL of Solution C prior to use) • Solution D (30 μL) [Probinicid] (Sigma P8161) make 200 mM stock in NaOH—H2O.

T1 sequence (P35372 whole entry): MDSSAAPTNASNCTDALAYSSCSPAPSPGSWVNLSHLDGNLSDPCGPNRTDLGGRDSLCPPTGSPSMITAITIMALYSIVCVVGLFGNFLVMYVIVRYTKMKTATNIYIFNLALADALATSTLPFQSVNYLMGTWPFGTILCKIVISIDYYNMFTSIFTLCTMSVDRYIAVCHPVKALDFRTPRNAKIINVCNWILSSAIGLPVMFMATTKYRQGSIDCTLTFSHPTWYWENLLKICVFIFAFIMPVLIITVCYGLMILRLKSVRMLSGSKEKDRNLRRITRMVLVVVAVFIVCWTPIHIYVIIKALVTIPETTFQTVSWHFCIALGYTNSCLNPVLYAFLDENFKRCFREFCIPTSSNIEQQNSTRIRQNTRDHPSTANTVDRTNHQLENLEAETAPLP
T2 sequence (P41145 whole entry): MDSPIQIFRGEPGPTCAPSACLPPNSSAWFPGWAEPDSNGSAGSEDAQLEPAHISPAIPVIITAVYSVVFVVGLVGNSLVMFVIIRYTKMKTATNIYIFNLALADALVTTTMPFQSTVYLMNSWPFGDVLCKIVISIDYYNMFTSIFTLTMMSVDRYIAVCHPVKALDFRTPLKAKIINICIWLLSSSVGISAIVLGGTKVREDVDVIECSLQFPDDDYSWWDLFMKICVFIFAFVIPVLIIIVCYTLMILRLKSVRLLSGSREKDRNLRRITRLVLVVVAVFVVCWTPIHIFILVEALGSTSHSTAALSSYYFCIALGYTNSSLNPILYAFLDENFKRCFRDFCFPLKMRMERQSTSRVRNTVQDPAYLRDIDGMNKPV

SMILES	IC50 (mu opioid receptor (MOR))	Selectivity (MOR/KOR) [1]	IC50 [1]
CCc1cc(F)c2nc(N3CCC(N[C@@H]4CCOC4)CC3)c(-c3cc(C(F)(F)F)n(C)n3)c(C)c2c1 [Compound 85]	> 1000 nM	+++ (between 100- to 1000-fold selective)	10 to 100 nM
CCc1cc(F)c2nc(N3CC[C@@H](N[C@H]4CCOC4)[C@@H](F)C3)c(-c3ccn(C)n3)c(C)c2c1 [Compound 193, (3S,4R)-1-(6-ethyl-8-fluoro-4-methyl-3-(1-methyl-1H-pyrazol-3-yl)quinolin-2-yl)-3-fluoro-N—((S)-tetrahydrofuran-3-yl)piperidin-4-amine]	> 1000 nM	++++ (more than 1000-fold selectivity over MOR)	< 1 nM
CCc1cc(F)c2nc(N3CCN(CC4CCOCC4)[C@H](C)C3)c(-c3nc(C)no3)c(C)c2c1 [Compound 39, (R)-5-(6-ethyl-8-fluoro-4-methyl-2-(3-methyl-4-((tetrahydro-2H-pyran-4-yl)methyl)piperazin-1-yl)quinolin-3-yl)-3-methyl-1,2,4-oxadiazole]	> 1000 nM	++ (between 10- and 100-fold selectivity)	≥ 100 nM
COc1cc(F)c2nc(N3CCN(CC4CCOCC4)C[C@H]3C)c(-c3nc(C)no3)c(C)c2c1 [Compound 37, (R)-5-(8-fluoro-6-methoxy-4-methyl-2-(2-methyl-4-((tetrahydro-2H-pyran-4-yl)methyl)piperazin-1-yl)quinolin-3-yl)-3-methyl-1,2,4-oxadiazole]	> 1000 nM	++ (between 10- and 100-fold selectivity)	≥ 100 nM
CCc1cc(F)c2nc(N3CCN(C4CCOCC4)C[C@@H]3C)c(-c3nc(C)no3)c(C)c2c1 (single isomer, unassigned) [Compound 28]	> 1000 nM	++++ (more than 1000-fold selectivity over MOR)	1 to 10 nM
CCc1cc(-c2ccnn2C)c2nc(N3CCN(CC4CC(F)(F)C4)C[C@H]3C)c(-c3ccn(C)n3)c(C)c2c1 [Compound 61]	> 1000 nM	++ (between 10- and 100-fold selectivity)	≥ 100 nM
CCc1cc(-c2ccnn2C)c2nc(N3CCC(N[C@H]4CCOC4)CC3)c(-c3ccn(C)n3)c(C)c2c1 [Compound 86]	> 1000 nM	+++ (between 100- to 1000-fold selective)	< 1 nM
CCc1cc(F)c2nc(N3CCN(C(=O)CN(C)C)C[C@H]3C)c(-c3cc(C)no3)c(C)c2c1 [Compound 181]	> 1000 nM	+++ (between 100- to 1000-fold selective)	10 to 100 nM
CCc1cc(-c2ccnn2C)c2nc(N3CCC(N[C@@H]4CCOC4)CC3)c(-c3ccn(C)n3)c(C)c2c1 [Compound 87]	100 to 1000 nM	+++ (between 100- to 1000-fold selective)	< 1 nM
CCc1cc(F)c2nc(N3CCN([C@H]4CCOC4)C[C@H]3C)c(-c3nc(C)no3)c(C)c2c1 [Compound 33]	> 1000 nM	+++ (between 100- to 1000-fold selective)	1 to 10 nM
CCc1cc(-c2ccnn2C)c2nc(N3CCC(N[C@@H]4COC[C@@H]4F)CC3)c(-c3ccn(C)n3)c(C)c2c1 [Compound 88]	100 to 1000 nM	++ (between 10- and 100-fold selectivity)	1 to 10 nM
CCc1cc(F)c2nc(N3CCN(C(=O)[C@H](C)N4CC[C@@H](F)C4)C[C@H]3C)c(-c3nc(C)no3)c(C)c2c1 (stereo in doubt) [Compound 151]	> 1000 nM	+++ (between 100- to 1000-fold selective)	1 to 10 nM
CCc1cc(F)c2nc(N3CCN(C(=O)[C@H](C)N4CCCC4)C[C@H]3C)c(-c3nc(C)no3)c(C)c2c1 [Compound 201]	100 to 1000 nM	+++ (between 100- to 1000-fold selective)	1 to 10 nM
CCc1cc(F)c2nc(N3CCN(C[C@H]4CCCO4)C[C@H]3C)c(-c3nc(C)no3)c(C)c2c1 [Compound 30]	> 1000 nM	+++ (between 100- to 1000-fold selective)	1 to 10 nM
CCc1cc(F)c2nc(N3CCN(C(=O)CN(C)C)C[C@H]3C)c(-c3ccn(C)n3)c(C)c2c1 [Compound 171]	> 1000 nM	+++ (between 100- to 1000-fold selective)	10 to 100 nM
CCc1cc(F)c2nc(N3CCN(C(=O)[C@H](C)N(CC)CC)C[C@H]3C)c(-c3cc(C)no3)c(C)c2c1 [Compound 164]	> 1000 nM	+++ (between 100- to 1000-fold selective)	10 to 100 nM
CCc1cc(F)c2nc(N3CCC(OCCN4CCCC4)CC3)c(-c3nc(C)no3)c(C)c2c1 [Compound 187]	> 1000 nM	+++ (between 100- to 1000-fold selective)	10 to 100 nM
CCc1cc(F)c2nc(N3CC[C@@H](N[C@@H]4CCOC4)[C@@H](F)C3)c(-c3ccn(C)n3)c(C)c2c1 [Compound 192, (3S,4R)-1-(6-ethyl-8-fluoro-4-methyl-3-(1-methyl-1H-pyrazol-3-yl)quinolin-2-yl)-3-fluoro-N—((R)-tetrahydrofuran-3-yl)piperidin-4-amine]	> 1000 nM	++++ (more than 1000-fold selectivity over MOR)	< 1 nM

— patent US20260115185A1, “QUINOLINE DERIVATIVES WHICH ACT AS KAPPA-OPIOID RECEPTOR ANTAGONISTS” (The Scripps Research Institute, priority 2023, published 2026)
